Measurements from US6660298B1, “Paroxetine tablets and capsules” (priority 2000, dated 2003).
Where a name gives a salt, the structure may show the parent alone.

Legend:
Assay type in all cases: physicochemical
[1] = Solubilization enhancement with PVP K-30 and citric acid (Preparation C)
Description: Approximately 1.0, 1.5, 1.6, 2.5 and 3.0 grams of amorphous paroxetine HCl were weighed into five 25-ml volumetric flasks. Ten milliliters of an ethanol-water (20% v/v ethanol) mixture containing 0.25 grams of polyvinyl pyrrolidone (PVP) K-30 and 0.02 grams of citric acid anhydrous were added into each of the five flasks and the flasks were sonicated for 30 minutes. Only the solution in flask 1 became clear while only part of the paroxetine HCl in flasks 2 through 5 dissolved.

[2] = Determination of solubility in deionized water (Preparation A); conditions: room temperature, sonicated 10 min, still clear after 24 hours
Description: Approximately 45, 100, 200, 300, 400, 500, 510, 750 and 1000 mg of amorphous paroxetine HCl were weighed into nine 25-ml volumetric flasks labeled 1 through 9 respectively. Ten milliliters of deionized water were pipetted into each of the flasks and the flasks were stoppered. The flasks were then placed in a sonicator (Branson 1210, Danbury, Conn.) and sonicated for ten minutes taking care to see that there was no heating.

[3] = Solubility in aqueous alcohol (Preparation B)
Description: A. Exactly two milliliters of ethanol were added to each of the nine flasks from Preparation A and the flasks shaken gently by hand. […] B. Approximately 250, 320, 400, 570 and 1120 mg of amorphous paroxetine HCl were weighed into five 25-ml volumetric flasks labeled 1 through 5 respectively. Ten milliliters of ethanol-water mixture containing 20% v/v ethanol were pipetted into each of the flasks and the flasks were stoppered. The flasks were then placed in a sonicator (Branson 1210, Danbury, Conn.) and sonicated for ten minutes taking care to see that there was no heating.

| Compound | solubility at 30 min ([1]; 60 °C, aqueous with cosolvent or surfactant or cyclodextrin, thermodynamic from solid) | maximum solubility ([2]; HCl) | maximum solubility ([2]; listed as amorphous form of paroxetine HCl) | appearance of solution ([3]; 1120 mg in 10 ml ethanol-water 20% v/v ethanol, sonicated 10 min (flask 5)) | appearance of solution ([3]; 250, 320, 400, 570 mg in 10 ml ethanol-water 20% v/v ethanol, sonicated 10 min (flasks 1-4)) | amount that could be dissolved in hydroalcoholic solvent mixture ([3]; about 15% ethanol (10 ml water + 2 ml ethanol)) | appearance of solution upon heating ([1]; 1.0-3.0 g in 10 ml 20% v/v ethanol with 0.25 g PVP K-30 and 0.02 g citric acid, heated to about 60° C.) | appearance of solution ([1]; 1.0 g in 10 ml 20% v/v ethanol with 0.25 g PVP K-30 and 0.02 g citric acid, sonicated 30 min (flask 1)) | extent of dissolution ([1]; 1.5, 1.6, 2.5, 3.0 g in 10 ml 20% v/v ethanol with 0.25 g PVP K-30 and 0.02 g citric acid, sonicated 30 min (flasks 2-5)) |
| --- | --- | --- | --- | --- | --- | --- | --- | --- | --- |
| Fc1ccc([C@@H]2CCNC[C@H]2COc2ccc3c(c2)OCO3)cc1 [Paroxetine HCl] | > 300 mg/mL | – | – | – | – | – | – | – | – |
| Cl.Fc1ccc([C@@H]2CCNC[C@H]2COc2ccc3c(c2)OCO3)cc1 [amorphous paroxetine HCl] | – | about 75 mg/ml | up to 75 mg/ml | clear solution with a slight precipitate | clear solutions | at least 1 gram | all the solutions became clear | became clear | only part |
